We go through 1 molecule from publication PMC4481117 (Molecular Pain, 2015).

Molecules are shown by their SMILES.

The target in assay [1] is T1, Mac-1 (Mac-1-expressing HEK293 cells) (Homo sapiens, UniProt P05107+P11215).
T1 construct: expressed in transfected cells
Nature of the assay: Adhesion of Mac-1-HEK293 cells to immobilized peptide. The class given is cell-based. The note with it: 30 min at 37 °C. How it is done:
For testing the role of glucosaminoglycans in cell adhesion, dynorphin A-coated wells were preincubated with 100 μl of 10 μg/ml of chondroitin sulfate A, chondroitin sulfate B and heparin. Aliquots (5x10^4cells) were added to the wells coated with 2 μM dynorphin A and adhesion was performed as described in A. Adhesion in the absence of Mac-1 inhibitors and glucosaminoglycans was assigned a value of 100 %. The data shown are the means ± S.E. from four separate experiments each with triplicate measurements. d , microtiter plate wells were coated with different concentrations of dynorphin B and adhesion of Mac-1-expressing and wild-type HEK293 cells was determined as described in A. The data shown are means of triplicate determinations, and error bars represent S.E. The figure is representative of 5 experiments. e. calcein-labeled Mac-1-HEK293 cells were preincubated without or with 10 μg/ml of mAb 44a and heparin, added to the wells coated with 20 μM of dynorphin B and adhesion was performed as described in A. Adhesion in the absence of inhibitors was assigned a value of 100 %.
Adhesion assays were performed essentially as described previously. […] Cells were labeled with 10 μM calcein for 30 min at 37 °C and washed twice with Hanks’ Balanced salt solution (HBSS) containing 0.1 % BSA. Aliquots (100 μl) of labeled cells (5x10^5/ml) were added to each well and allowed to adhere for 30 min at 37 °C. The non-adherent cells were removed by two washes with PBS. Fluorescence was measured in a CytoFluorII fluorescence plate reader (Perceptive Biosystems, Framingham, MA). In inhibition experiments, cells were mixed with different concentrations of peptides, NIF or mAbs for 20 min at 22 °C before they were added to the wells coated with adhesive substrates. In a separate set of experiments, after coating plates with dynorphins and post-coating with 1 % PVP, plates were incubated with 100 μl of 10 μg/ml chondroitin sulfate A, chondroitin sulfate B, or heparin for 20 min at 22 °C. After aspirating the solution, labeled cells were added and cell adhesion was analyzed as above.

The test system of the next assay is wild-type HEK293 cells. Nature of the assay: Adhesion of wild-type HEK293 cells to immobilized peptide. Particulars: coated wells, calcein-labeled cells, 30 min at 37 °C. The class given is cell-based, Human. How it is done: (§1) Fig. 3 Adhesion of Mac-1-expressing cells to Dyn A and Dyn B. a, Mac-1-expressing and wild-type HEK293 cells were labeled with calcein and 5x10^4 cells were added to the wells coated with different concentrations of the Dyn A. After 30 min at 37 °C, nonadherent cells were removed and fluorescence was measured. The data shown are means of triplicate determinations, and error bars represent S.E. The figure is representative of 8 experiments. b , adhesion of HEK293 cells expressing Mac-1, LFA and the I-less form of Mac-1 to Dyn A and Dyn B immobilized at 10 μM was determined as described in A. c, calcein-labeled Mac-1-HEK293 cells were preincubated without or with 10 μg/ml of anti-αM mAb 44a or 1 μg/ml NIF for 15 minutes. For testing the role of glucosaminoglycans in cell adhesion, dynorphin A-coated wells were preincubated with 100 μl of 10 μg/ml of chondroitin sulfate A, chondroitin sulfate B and heparin. […]
(§2) Adhesion assays were performed essentially as described previously. […] Fluorescence was measured in a CytoFluorII fluorescence plate reader (Perceptive Biosystems, Framingham, MA). […] After aspirating the solution, labeled cells were added and cell adhesion was analyzed as above.

The subject of another assay is LFA-1 (αLβ2, CD11a/CD18). Nature of the assay: Adhesion of LFA-1-expressing HEK293 cells to immobilized peptide. The class given is cell-based, Human. The note with it: peptide immobilized at 10 μM, 30 min at 37 °C. How it is done: as §1, §2
The subject of assay [2] is mouse peritoneal macrophages. Particulars: cited from earlier work. An excerpt: Apart from their effects on κ-opioid receptors on neurons, Dyn A exerts numerous effects on leukocytes, particularly myeloid cells. […] Similar to other cationic peptides, Dyn A can exert some effects essential for host defense.
Another assay has as its system k-opioid receptors. On the set-up: method as in PMID 10973443, PMID 16364815, PMID 22424981. The note with it: cited from earlier work.

Consider `CC[C@H](C)[C@H](NC(=O)[C@H](CCCNC(=N)N)NC(=O)[C@H](CCCNC(=N)N)NC(=O)[C@H](CC(C)C)NC(=O)[C@H](Cc1ccccc1)NC(=O)CNC(=O)CNC(=O)[C@@H](N)Cc1ccc(O)cc1)C(=O)N[C@@H](CCCNC(=N)N)C(=O)N1CCC[C@H]1C(=O)N[C@@H](CCCCN)C(=O)N[C@@H](CC(C)C)C(=O)N[C@@H](CCCCN)C(=O)N[C@@H](Cc1c[nH]c2ccccc12)C(=O)N[C@@H](CC(=O)O)C(=O)N[C@@H](CC(N)=O)C(=O)N[C@@H](CCC(N)=O)C(=O)O` [Dyn A], for which the “Coating concentration giving saturable adhesion” value in assay [1] (Mac-1-HEK293 cells) is recorded as ~ 2 μM. Besides, in assay [1] (coated wells, calcein-labeled cells), the “Adhesion of Mac-1-HEK293 cells (in words)” value is recorded as “strongly adhered”. Further, in assay [1] (read-out: Coating concentration required to reach 50 % of maximal cell adhesion, Mac-1-HEK293 cells, fluorescence of calcein), the EC50 is 200 to 500 nM. Besides, the “Adhesion of wild-type HEK293 cells (in words)” value in the assay on wild-type HEK293 cells is on record as “adhered only slightly”. For the same molecule, in the assay with LFA-1 (αLβ2, CD11a/CD18), the “Adhesion of LFA-1-HEK293 cells” value is 13 ± 2%. In assay [2], the “Phagocytosis by mouse peritoneal macrophages” value is on record as “enhance phagocytosis by mouse peritoneal macrophages”. Besides, in the assay on k-opioid receptors, the κ-opioid receptor binding result is “binds preferentially to the k-opioid receptors”.
